# Where a name gives a salt, the structure may show the parent alone. Read-outs that look alike come from different tables or passages of the source.
# Columns and labels:
# [1] = molecular target: T1, human jejunal NK2 receptor (Homo sapiens, UniProt P21452); experiment: Antagonism of iodinated tachykinin binding to NK2 receptor (125iodohistidyl-1-neurokinin A, HSKR-1 cell membranes)
# T1 construct: expressed in transfected cells; host or cells: HSKR-1 cells (mouse 3T3 fibroblasts)
# T1 sequence (P21452 1-398): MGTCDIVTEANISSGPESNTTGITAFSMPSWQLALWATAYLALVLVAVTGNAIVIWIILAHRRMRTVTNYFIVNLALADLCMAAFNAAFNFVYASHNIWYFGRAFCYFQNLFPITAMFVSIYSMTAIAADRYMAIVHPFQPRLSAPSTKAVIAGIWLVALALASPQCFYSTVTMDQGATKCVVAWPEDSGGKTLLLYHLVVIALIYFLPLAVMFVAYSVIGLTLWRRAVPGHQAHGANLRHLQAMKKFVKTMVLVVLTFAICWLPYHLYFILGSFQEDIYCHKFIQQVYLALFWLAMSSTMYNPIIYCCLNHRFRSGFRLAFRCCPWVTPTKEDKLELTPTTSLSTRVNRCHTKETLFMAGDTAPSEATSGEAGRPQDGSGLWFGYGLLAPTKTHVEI
# Protocol: (§1) The NK1 receptor affinity of proposed tachykinin antagonists was devaluated in guinea pig lungs (Keystone Biologicals, Cleveland, OH), affinity for the NK2 receptor evaluated in HSKR-1 cells (which are mouse 3T3 fibroblasts expressing the human jejunal NK2 receptor) and NK-3 receptor affinity was evaluated in freshly collected guinea pig cerebral cortex. Tissues or cells were homogenized with a Polytron in 15 volumes of 50 mM Tris-HCl buffer (pH 7.4, 4°C) and centrifuged. The pellet was resuspended in Tris-HCl buffer and was centrifuged; the pellet was washed twice by resuspension. The final pellet was resuspended at a concentration of 40 mg/ml for tissues (guinea pig lung and cerebral cortex) and 20 mg/ml for cells in incubation buffer and remained at room temperature for at least 15 min prior to use. Receptor binding was initiated by addition of 250 µl membrane preparation in duplicate to 0.1 nM of the following radioligands: ^125I-Bolton Hunter Lys-3 labeled substance P; ^125iodohistidyl-1-neurokinin A; and ^125I-Bolton Hunter labeled Lys-4 eledoisin in a final volume of 500 µl of buffer containing 50 mM Tris-HCl (pH 7.4 at room temperature), 0.1% bovine serum albumin, 2 mM MnCl2, 40 µg/ml bacitracin, 4 µg/ml leupeptin and chymostatin, 1 µM thiorphan and various doses of the putative tachykinin antagonists. Incubations were performed at room temperature for 90 min (NK1 receptor assays) or 2 hr (NK2 and NK3 receptor assays); binding was terminated by addition of 50 mM Tris-HCl buffer (pH 7.4, 4°C) and filtration under vacuum through GF/B filters presoaked with 0.1% polyethyleneimine (NK1 receptor assays) or 0.5% bovine serum albumin (NK2 and NK3 receptor assays). Filter bound radioactivity was quantitated in a gamma counter. Nonspecific binding was defined as binding in the presence of 1 µM substance P, neurokinin A, or eledoisin. Specific binding was calculated by subtracting nonspecific binding from total binding. Competition of iodinated SP, NKA, or eledoisin binding by test compounds or standards was expressed as a percentage of this maximum competition. IC50 values (concentration required to inhibit 50% of receptor binding) were generated for each of the test compounds by nonlinear regression using an iterative curve fitting program (GraphPAD Inplot, San Diego, CA).
# NK1 receptor = molecular target: T2, NK1 receptor (Cavia porcellus, UniProt P30547); experiment: Antagonism of iodinated tachykinin binding to NK1 receptor (125I-Bolton Hunter Lys-3 labeled substance P, guinea pig lung membranes)
# T2 construct: Tissues or cells were homogenized with a Polytron in 15 volumes of 50 mM Tris-HCl buffer; tissue Keystone Biologicals, Cleveland, OH; host or cells: guinea pig lung membranes
# T2 sequence (P30547 whole entry): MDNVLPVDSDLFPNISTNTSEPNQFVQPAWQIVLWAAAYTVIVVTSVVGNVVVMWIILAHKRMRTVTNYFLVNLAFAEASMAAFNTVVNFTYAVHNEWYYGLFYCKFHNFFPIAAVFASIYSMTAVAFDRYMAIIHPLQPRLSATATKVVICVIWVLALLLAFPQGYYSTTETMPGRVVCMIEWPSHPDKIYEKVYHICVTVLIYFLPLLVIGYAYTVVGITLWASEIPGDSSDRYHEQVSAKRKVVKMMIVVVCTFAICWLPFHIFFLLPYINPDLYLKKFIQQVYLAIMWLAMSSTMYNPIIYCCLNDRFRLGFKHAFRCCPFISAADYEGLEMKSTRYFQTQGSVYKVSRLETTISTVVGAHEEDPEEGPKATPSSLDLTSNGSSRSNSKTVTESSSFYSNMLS
# Protocol: as §1
# NK-3 receptor = molecular target: T3, NK-3 receptor (Cavia porcellus, UniProt P30098); experiment: Antagonism of iodinated tachykinin binding to NK-3 receptor (125I-Bolton Hunter labeled Lys-4 eledoisin, guinea pig cerebral cortex membranes)
# T3 construct: freshly collected guinea pig cerebral cortex; from tissue; host or cells: guinea pig cerebral cortex membranes
# T3 sequence (P30098 1-440): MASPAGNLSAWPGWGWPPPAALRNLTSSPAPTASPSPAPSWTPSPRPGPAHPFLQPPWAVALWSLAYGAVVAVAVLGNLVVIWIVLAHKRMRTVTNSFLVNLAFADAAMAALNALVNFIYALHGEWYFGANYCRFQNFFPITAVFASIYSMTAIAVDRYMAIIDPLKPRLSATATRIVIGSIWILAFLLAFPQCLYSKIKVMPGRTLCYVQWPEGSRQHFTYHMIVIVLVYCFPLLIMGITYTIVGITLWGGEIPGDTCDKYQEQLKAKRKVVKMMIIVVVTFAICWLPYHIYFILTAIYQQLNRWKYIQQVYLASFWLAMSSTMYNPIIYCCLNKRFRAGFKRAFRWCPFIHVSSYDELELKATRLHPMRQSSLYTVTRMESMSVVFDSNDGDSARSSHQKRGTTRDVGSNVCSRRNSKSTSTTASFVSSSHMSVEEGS
# Protocol: as §1
# [2] = system: capsaicin-induced respiratory effects; experiment: Antagonism of capsaicin aerosol induced respiratory effects in conscious guinea pigs (whole body plethysmography); assay type: in vivo, guinea pig; conditions: for DYSPNEA ONSET / MAXIMUM PRESSURE INCREASE (mmH2O) / SRE NUMBER*: mean and SEM; for SRE NUMBER*: number of coughs/gasps during 19 min exposure
# Protocol: (§2) In vivo experiments were performed using male Duncan Hartley guinea pigs (250-350g). Changes in conscious breathing patterns were monitored in four animals simultaneously using modified whole body plethysmography consisting of four small plexiglass boxes each connected to a reference box via Validyne DP 45-16 differential pressure transducers. The 4 boxes were equipped with an air supply line (also used for aerosol delivery) and an exhaust air line. Supply and exhaust lines were of the same length and narrow bore and arose from a common supply chamber and vented to a common exhaust chamber. This system was used to ensure that fluctuations in supply air and atmospheric pressure would remain in phase and be eliminated from the net signal by the differential pressure transducers. The analog pressure signals were digitalized via a Data Translation DT2821 A to D board. Data were collected at a rate of 100 samples/second/animal. Each cycle of pressure change was analyzed using the following parameters: rising and falling slope determined between minimum and maximum pressures, the ratio of rising over falling slope, and the magnitude of the change between initial trough pressure and peak cycle pressure. Using these values (and observing the animals) the pressure cycles were characterized into normal breaths, forced exhalations (apparent by abdominal heaving), significant respiratory events (SREs; usually coughs, less often sneezes or gasps which were characterized by transient, extremely large pressure increases which were distinguishable from noise) and movement/noise with a PCAT 286 running a System V UNIX operating system. Dyspnea was defined as a significant, sustained increase in plethysmograph pressure which was associated with an observable shift to labored breathing in the animal.
# (§3) During the course of a typical experiment in which airway responsiveness to various bronchoconstricting agents was examined, aerosols were delivered for 19 min (0.33 ml/min) using a DeVilbiss Ultraneb 99 ultrasonic nebulizer and animals monitored during this time. Prior to nebulization, 1 min of resting breathing was collected to establish a baseline pressure. […] The vehicle for nebulization of all bronchoconstrictive agents was phosphate buffered saline (pH 7.4) which elicited no respiratory effects itself. Putative tachykinin antagonists were administered either (i.v.) 20 min prior to onset of aerosol exposure or orally 1 hour prior to onset (to guinea pigs after an overnight fast).
# Capsaicin aerosol is known to promote release of the tachykinins SP and NKA from sensory nerves in the airways of guinea pigs which may then act upon NK1 and NK2 receptors, respectively to elicit respiratory effects. […]
# (§4) Values are mean and SEM of data derived from number of animals indicated in parenthesis. Putative tachykinin antagonists were administered intravenously 20 min prior to initiation of capsaicin aerosol (0.001%). *SRE number indicates the number of coughs/gasps which occurred during the 19 min capsaicin exposure period.
# as §4, with “by oral gavage 1 hr” for “intravenously 20 min”
# [3] = system: NKA-induced respiratory effects; experiment: Antagonism of NKA aerosol induced respiratory effects in conscious guinea pigs (whole body plethysmography); assay type: in vivo, guinea pig; conditions: 20 min prior to NKA aerosol (0.05%); for DYSPNEA ONSET: mean and SEM
# Protocol: as §2, §3
# Table 6 illustrates the effects of the compounds of Example 3; Example 20A; and Example 5A on respiratory effects induced by NKA aerosol. […] These effects were dose dependent i.e. the higher the dose of compound, the greater attenuation of NKA-mediated effects. […]
# Compounds were administered 20 min prior to initiation of NKA aerosol (0.05%). Values for each treatment represent the mean and SEM of data from 5-37 animals per dose.
# [4] = HSKR-1 cells (mouse 3T3 fibroblasts expressing human jejunal NK2 receptor), mean of several experiments, read-out: NK-2 IC50
# [5] = guinea pig lungs, mean of several experiments, read-out: NK-1 IC50
# [6] = 1 mg/kg intravenously 20 min prior to capsaicin aerosol (0.001%)
# [7] = 2.5 mg/kg intravenously 20 min prior to capsaicin aerosol (0.001%)
# [8] = 5 mg/kg intravenously 20 min prior to capsaicin aerosol (0.001%)
# [9] = 10 mg/kg intravenously 20 min prior to capsaicin aerosol (0.001%)
structure (smiles),measurement,setting,value
NC(=O)C1(c2ccccc2)CCN(CCC2(c3ccc4ccccc4c3)CC(=O)N(Cc3ccccc3)C2)CC1 (racemic) [Example 12],IC50,[1]; [4],179 nM
same,IC50,NK1 receptor; [5],810 nM
"COc1cc(C(=O)N2CCC(CCN3CCC(C(N)=O)(c4ccccc4)CC3)(c3ccccc3)C2)cc(OC)c1OC (centres unmarked) [Example 22A, 1-[2-[3-phenyl-1-(3,4,5-trimethoxy-benzoyl)-pyrrolidin-3-yl]-ethyl]-4-phenyl-piperidine-4-carboxylic acid amide hydrochloride]",IC50,[1],1190 nM
same,IC50,NK1 receptor,17.4 nM
COC(=O)CC[C@H](NC(=O)C1(c2ccccc2)CCN(CCC2(c3ccc(Cl)c(Cl)c3)CCN(C(=O)c3ccccc3)C2)CC1)C(=O)OC (some centres unmarked) [Example 6],IC50,[1],15 nM
same,IC50,NK1 receptor; [5],182 nM
"COc1ccccc1CC(=O)N1CCC(CCN2CCC(C(N)=O)(c3ccccc3)CC2)(c2ccc(Cl)c(Cl)c2)C1 (centres unmarked) [Example 4, 1-(2-[3-(3,4-dichloro-phenyl)-1-[2-(2-methoxy-phenyl)-acetyl]-pyrrolidin-3-yl]-ethyl)-4-phenyl-piperidine-4-carboxylic acid amide]",IC50,[1]; [4],74 nM
same,IC50,NK-3 receptor,41 nM
"NC(=O)C1(c2ccccc2)CCN(CCC2(c3ccc4ccccc4c3)CCN(C(=O)c3ccccc3)C2)CC1 (racemic) [Example 8, 1-[2-(1-benzoyl-3-napthalen-2-yl-pyrrolidin-3-yl)-ethyl]-4-phenyl-piperidine-4-carboxylic acid amide]",IC50,[1]; [4],94 nM
same,IC50,NK1 receptor; [5],1480 nM
"COc1cc(C(=O)N2CCC(CCN3CCC(C(N)=O)(c4ccccc4)CC3)(c3ccc(Cl)c(Cl)c3)C2)cc(OC)c1OC.Cl (single isomer, unassigned; (+)) [Example 20A, (+)-1-[2-[3-(3,4-dichloro-phenyl)-1-(3,4,5-trimethoxy-benzoyl)-pyrrolidin-3-yl] -ethyl]-4-phenyl-piperidine-4-carboxylic acid amide hydrochloride]",DYSPNEA INCIDENCE,[2]; [6],77.8% (7/9)
same,DYSPNEA ONSET,[2]; [6],331 ± 22 s
same,MAXIMUM PRESSURE INCREASE (mmH2O),[2]; [6],1.0 ± 0.1 mmH2O
same,SRE NUMBER*,[2]; [6],9.9 ± 2.7
same,DYSPNEA INCIDENCE,[2]; [7],100% (10/10)
same,DYSPNEA ONSET,[2]; [7],426 ± 57 s
same,MAXIMUM PRESSURE INCREASE (mmH2O),[2]; [7],0.6 ± 0.1 mmH2O
same,SRE NUMBER*,[2]; [7],8.3 ± 1.6
same,DYSPNEA INCIDENCE,[2]; [8],44.4% (4/9)
same,DYSPNEA ONSET,[2]; [8],597 ± 186 s
same,MAXIMUM PRESSURE INCREASE (mmH2O),[2]; [8],0.8 ± 0.06 mmH2O
same,SRE NUMBER*,[2]; [8],4.4 ± 1.9
same,DYSPNEA INCIDENCE,[2]; [9],55.6% (5/9)
same,DYSPNEA ONSET,[2]; [9],592 ± 71 s
same,MAXIMUM PRESSURE INCREASE (mmH2O),[2]; [9],0.8 ± 0.1 mmH2O
same,SRE NUMBER*,[2]; [9],3.3 ± 1.1
same,DYSPNEA INCIDENCE,[3]; 1 mg/kg,100% (10/10)
same,DYSPNEA ONSET,[3]; 1 mg/kg,451 ± 30 s
same,DYSPNEA INCIDENCE,[3]; 5 mg/kg,90% (9/10)
same,DYSPNEA ONSET,[3]; 5 mg/kg,706 ± 82 s
same,DYSPNEA INCIDENCE,[3]; 10 mg/kg,70% (7/10)
same,DYSPNEA ONSET,[3]; 10 mg/kg,829 ± 105 s
"COc1ccc(C2(CCN3CCC(C(N)=O)(c4ccccc4)CC3)CCN(C(=O)c3cc(OC)c(OC)c(OC)c3)C2)cc1OC (centres unmarked) [Example 23, 1-[2-[3-(3,4-dimethoxy-phenyl)-1-(3,4,5-trimethoxy-benzoyl)-pyrrolidin-3-yl]-ethyl]-4-phenyl-piperidine-4-carboxylic acid amide]",IC50,[1]; [4],2680 nM
same,IC50,NK1 receptor,20 nM
"COc1ccccc1C(=O)N1CCC(CCN2CCC(C(N)=O)(c3ccccc3)CC2)(c2ccc(Cl)c(Cl)c2)C1 (centres unmarked) [Example 13, 1-[2-[3-(3,4-dichloro-phenyl)-1-(2-methoxy-benzoyl)-pyrrolidin-3-yl]-ethyl]-4-phenyl-piperidine-4-carboxylic acid amide]",IC50,[1]; [4],14 nM

# — patent publication EP0696280B1, “SUBSTITUTED PYRROLIDIN-3-YL-ALKYL-PIPERIDINES USEFUL AS TACHYKININ ANTAGONISTS” (MERRELL PHARMACEUTICALS INC., priority 1993, dated 1994)
